# In patent US20110045001A1, “Transfection results of non-viral gene delivery systems by influencing of the innate immune system” (Biontex Laboratories GmbH, priority 2008, published 2011):
# “And” between values parts separate entries of the source, which are not always exact repeats. Equal values may be shown once. Read-outs that look alike come from different tables or passages of the source.
# Experiments:
# HeLa-Luc cells [1] = test: Vitality determination with trypan blue after siRNA transfection in the presence of TLR7/8 agonists (Example 9); conditions: 48 hours
# Method: (§1) The cells are to be plated out at a cell count of 2×10^4 cells/cm^2 per well of 250 μl of complete medium.
# (§2) First of all, the first 5 wells of the first three rows of a 48-well plate are each filled with 30 μl of PBS.
# (§3) The stock solution of anti-luciferase-siRNA and the non-specific-control-siRNA is adjusted to a concentration of 1 pmol/10 μl with PBS. Then 10 μl of the working solution of the anti-luciferase-siRNA are pipetted into each of the first three wells of the first three rows of the 48-well plate. 10 μl of the working solution of the non-specific-control-siRNA are pipetted into each fourth well.
# (§4) The Metafectene Pro reagent is diluted 1:300 with PBS. 20 μl of that dilution are introduced into each well containing siRNA.
# (§5) The lipoplexes are then incubated for 20 minutes at room temperature. Then 250 μl of cell suspension are added to each well.
# Two different agonists are added to the first 2 columns of the two 48-well plates, with three different working concentrations of the agonists being used. The agonists are in lyophilised form. They are dissolved with endotoxin-free water to form stock solutions having the concentration 100 μg/ml. The stock solutions are each diluted 1:10 with water to give working solutions. […]
# After the addition of the agonists, the two 48-well plates are incubated in a CO2 incubator for 48 hours.
# After an incubation period of 48 hours, the cells of a plate are trypsinised and, using a Neubauer counting chamber, vitality measurement is carried out for each well with trypan blue.
# HeLa-Luc cells [2] = test: Luciferase assay after siRNA transfection in the presence of TLR7/8 agonists (Example 9); format: cell-based, human; conditions: imiquimod 0.25 μg/ml final concentration (row A, column 1) + anti-luciferase-siRNA/Metafectene Pro; 48 hours
# Method: as §1, §2, §3, §4, §5
# Two different agonists are added to the first 2 columns of the two 48-well plates, with three different working concentrations of the agonists being used. The agonists are in lyophilised form. They are dissolved with endotoxin-free water to form stock solutions having the concentration 100 μg/ml. The stock solutions are each diluted 1:10 with water to give working solutions.
# Of the imiquimod working solution, 0.78 μl (=0.25 μg/ml final concentration) are pipetted into A1, 15.5 μl (=5 μg/ml) into A2 and 31 μl (=10 μg/ml) into A3. […]
# HeLa-Luc cells [3] = test: Luciferase assay after anti-luciferase-siRNA transfection in the presence of kinase inhibitors (Example 8); conditions: anti-luciferase-siRNA 1 pMol/well, Metafectene Pro
# HeLa cells [4] = conditions: transfection repeated on 3rd day, pre-incubation 2 hours, development time 10 min
# Method: 1st day: HeLa cells are sown in a 48-well plate, the cells being plated out at a cell count of 0.8*10^5 cells per well of 250 μl of complete medium (10% FCS). […] 1 mg of inhibitor is dissolved in 100 μl of DMSO (stock solution). Dilution is then carried out with PBS 1:20 (working solution). […] The lipoplexes are then prepared. […] The two solutions are then mixed and incubated for 15 min. Finally, 50 μl of the lipoplex solution are added to each well. […] Analogous to Example 1 (with half amounts)
# HeLa cells [5] = test: β-Galactosidase reporter gene assay after single or repetitive transfection with antagonist (Example 4); format: cell-based, human; conditions: development time 10 min; for β-Galactosidase assay absorption, average value of duplicates 1&2/2: single transfection
# Method: 1st day: Analogous to Example 3.
# The antagonist is adjusted to a concentration of 0.025 μg/μl with PBS.
# The lipoplexes are then prepared.
# Analogously to Example 3.
# Analogous to Example 1 (with half amounts)
# [6] = repetitive transfection, antagonist 0.0625 μg per well
# [7] = repetitive transfection, antagonist 0.125 μg per well
# [8] = repetitive transfection, antagonist 0.250 μg per well
# [9] = repetitive transfection, antagonist 0.375 μg per well
# [10] = repetitive transfection, antagonist 0.75 μg per well
compound,measurement,setting,value
"CC(C)Cn1cnc2c(N)nc3ccccc3c21 [Imiquimod, 1-(2-methylpropyl)-1H-imidazo[4,5-c]quinoline-4-amine]",Vitality (trypan blue staining),HeLa-Luc cells [1]; Imiquimod 0.5 μg/ml + anti-luciferase-siRNA/Metafectene Pro,98.6%
same,Vitality (trypan blue staining),HeLa-Luc cells [1]; Imiquimod 5 μg/ml + anti-luciferase-siRNA/Metafectene Pro,88.7%
same,Vitality (trypan blue staining),HeLa-Luc cells [1]; Imiquimod 10 μg/ml + anti-luciferase-siRNA/Metafectene Pro,88.6%
same,"Luciferase assay, average value of 3×3 measurements",HeLa-Luc cells [2],676 RLU/μl cell extract/sec
"N#CC(=C(/N)Sc1ccccc1N)/C(C#N)=C(/N)Sc1ccccc1N [U0126, 1,4-diamino-2,3-dicyano-1,4-bis(o-aminophenylmercapto)butadiene]","Luciferase assay, average value of 3×3 measurements","HeLa-Luc cells [3]; single transfection, U0126 75 μM",260 RLU/μl ell extract/sec
same,"β-Galactosidase assay absorption, average value of 3 measurements",HeLa cells [4]; inhibitor 5 μM (well E),0.72
same,"β-Galactosidase assay absorption, average value of 3 measurements",HeLa cells [4]; inhibitor 10 μM (well D),0.92
same,"β-Galactosidase assay absorption, average value of 3 measurements",HeLa cells [4]; inhibitor 25 μM (well C),0.79
same,"β-Galactosidase assay absorption, average value of 3 measurements",HeLa cells [4]; inhibitor 50 μM (well B),0.90
same,"β-Galactosidase assay absorption, average value of 3 measurements",HeLa cells [4]; inhibitor 75 μM (well A),0.97
C[S+]([O-])c1ccc(-c2nc(-c3ccncc3)c(-c3ccc(F)cc3)[nH]2)cc1 (stereo not shown) [SB203580],"Luciferase assay, average value of 3×3 measurements","HeLa-Luc cells [3]; single transfection, SB203580 5 μM",693 RLU/μl ell extract/sec
same,"Luciferase assay, average value of 3×3 measurements","HeLa-Luc cells [3]; single transfection, SB203580 10 μM",747 RLU/μl ell extract/sec
same,"Luciferase assay, average value of 3×3 measurements","HeLa-Luc cells [3]; single transfection, SB203580 20 μM",630 RLU/μl ell extract/sec
same,"Luciferase assay, average value of 3×3 measurements","HeLa-Luc cells [3]; single transfection, SB203580 30 μM",671 RLU/μl ell extract/sec
same,"Luciferase assay, average value of 3×3 measurements","HeLa-Luc cells [3]; single transfection, SB203580 40 μM",669 RLU/μl ell extract/sec
same,"Luciferase assay, average value of 3×3 measurements","HeLa-Luc cells [3]; transfection repeated on 3rd day, SB203580 5 μM",696 RLU/μl ell extract/sec
same,"Luciferase assay, average value of 3×3 measurements","HeLa-Luc cells [3]; transfection repeated on 3rd day, SB203580 10 μM",656 RLU/μl ell extract/sec
same,"Luciferase assay, average value of 3×3 measurements","HeLa-Luc cells [3]; transfection repeated on 3rd day, SB203580 20 μM",617 RLU/μl ell extract/sec
same,"Luciferase assay, average value of 3×3 measurements","HeLa-Luc cells [3]; transfection repeated on 3rd day, SB203580 30 μM",587 RLU/μl ell extract/sec
same,"Luciferase assay, average value of 3×3 measurements","HeLa-Luc cells [3]; transfection repeated on 3rd day, SB203580 40 μM",610 RLU/μl ell extract/sec
"Human Interleukin-1 Receptor Antagonist (IL1-ra Human): Human interleukin-1 receptor antagonist, Biomol, Cat. No. 54592","β-Galactosidase assay absorption, average value of 3 measurements",HeLa cells [5]; [6],0.791 and 1.021
same,"β-Galactosidase assay absorption, average value of duplicates 3&4/2",HeLa cells [5]; [6],0.906
same,"β-Galactosidase assay absorption, average value of 3 measurements",HeLa cells [5]; [7],0.856 and 1.185
same,"β-Galactosidase assay absorption, average value of duplicates 3&4/2",HeLa cells [5]; [7],1.020
same,"β-Galactosidase assay absorption, average value of 3 measurements",HeLa cells [5]; [8],1.035 and 1.026
same,"β-Galactosidase assay absorption, average value of duplicates 3&4/2",HeLa cells [5]; [8],1.030
same,"β-Galactosidase assay absorption, average value of 3 measurements",HeLa cells [5]; [9],1.076 and 1.081
same,"β-Galactosidase assay absorption, average value of duplicates 3&4/2",HeLa cells [5]; [9],1.078
same,"β-Galactosidase assay absorption, average value of 3 measurements",HeLa cells [5]; [10],1.161 and 1.207
same,"β-Galactosidase assay absorption, average value of duplicates 3&4/2",HeLa cells [5]; [10],1.184
same,"β-Galactosidase assay absorption, average value of 3 measurements","HeLa cells [5]; single transfection (columns 1, 2), antagonist 0.0625 μg per well, pre-incubation 7 hours",0.427 and 0.448
same,"β-Galactosidase assay absorption, average value of 3 measurements","HeLa cells [5]; single transfection (columns 1, 2), antagonist 0.125 μg per well, pre-incubation 7 hours",0.415 and 0.435
same,"β-Galactosidase assay absorption, average value of 3 measurements","HeLa cells [5]; single transfection (columns 1, 2), antagonist 0.250 μg per well, pre-incubation 7 hours",0.393 and 0.439
same,"β-Galactosidase assay absorption, average value of 3 measurements","HeLa cells [5]; single transfection (columns 1, 2), antagonist 0.375 μg per well, pre-incubation 7 hours",0.392 and 0.460
same,"β-Galactosidase assay absorption, average value of 3 measurements","HeLa cells [5]; single transfection (columns 1, 2), antagonist 0.75 μg per well, pre-incubation 7 hours",0.443 and 0.455
same,"β-Galactosidase assay absorption, average value of duplicates 1&2/2",HeLa cells [5]; antagonist 0.0625 μg per well,0.437
same,"β-Galactosidase assay absorption, average value of duplicates 1&2/2",HeLa cells [5]; antagonist 0.125 μg per well,0.425
same,"β-Galactosidase assay absorption, average value of duplicates 1&2/2",HeLa cells [5]; antagonist 0.250 μg per well,0.416
same,"β-Galactosidase assay absorption, average value of duplicates 1&2/2",HeLa cells [5]; antagonist 0.375 μg per well,0.426
same,"β-Galactosidase assay absorption, average value of duplicates 1&2/2",HeLa cells [5]; antagonist 0.75 μg per well,0.449
